According to patent US4448730A, “Hydroxybenzohydroxamic acids, benzamides and esters and related compounds as ribonucleotide reductase inhibitors” (priority 1982, dated 1984):
Read-outs that look alike come from different tables or passages of the source.

How the values were obtained:
[1] = target: T1, ribonucleotide reductase (Rattus norvegicus, UniProt Q4KLN6); assay: Inhibition of ribonucleotide reductase (conversion of CDP to dCDP), enzyme partially purified from Novikoff hepatoma; type: biochemical; details: for IC50: CDP to dCDP, 40 min at 30° C, pH 7.5, enzyme from Novikoff hepatoma, read-out: ID50 (inhibitory dose which inhibits ribonucleotide reductase by 50%); for Inhibitory Potency for ribonucleotide reductase: relative to hydroxyurea, given an arbitrary value of 1.0
T1 construct: partially purified from Novikoff hepatoma; from tissue; host or cells: Novikoff hepatoma (rat tumour), partially purified enzyme
T1 sequence (Q4KLN6 1-390): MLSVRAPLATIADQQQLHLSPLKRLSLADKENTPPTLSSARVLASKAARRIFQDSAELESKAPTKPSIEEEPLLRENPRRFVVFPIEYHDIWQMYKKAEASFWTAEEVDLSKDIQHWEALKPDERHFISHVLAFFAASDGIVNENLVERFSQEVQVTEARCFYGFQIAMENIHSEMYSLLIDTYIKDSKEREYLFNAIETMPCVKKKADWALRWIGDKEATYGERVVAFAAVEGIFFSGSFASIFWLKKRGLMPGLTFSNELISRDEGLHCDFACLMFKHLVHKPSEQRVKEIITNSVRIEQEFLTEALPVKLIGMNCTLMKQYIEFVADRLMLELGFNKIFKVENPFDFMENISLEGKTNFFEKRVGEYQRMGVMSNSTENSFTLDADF
Description: (§1) Table 2 gives ribonucleotide reductase data for certain compounds of formula I. In the table, column 1 gives the substitution pattern in the benzene ring, column 2, the R^1 group, column 3, the ID50 (inhibitory dose in micromolar concentration which inhibits ribonucleotide reductase by 50%), column 4, the average percent (± standard error) increase in the life span (ILS) of 8 treated mice inoculated with L1210 leukemia compared with 8 control mice also inoculated with L1210. The daily dose level of the drug which was administered for 8 days is indicated in column 5. Table 3 gives the relative potency of the compounds represented by formula I above as inhibitors of ribonucleotide reductase compared to hydroxyurea whose potency was given an arbitrary value of 1.0. In table 3, column 1 gives the name of the compound and column 2 the relative inhibitory potency of each of the compounds of column 1.
In the above determination of ID50 's in Table 3, ribonucleotide reductase is partially purified from Novikoff hepatoma by a procedure similar to that set forth by Elford et al. J. Biol. Chem. 245, 5228 (1970). The activity of the enzyme was measured by a slightly modified assay procedure originally developed by Reichard et al. id, 236, 1150 […]. This procedure measures the conversion of CDP to dCDP. The assay mixture (0.34 ml.) contains 3 μCi of [^3 H] CDP (specific activity […]), 3.3 μmole ATP, 5.9 μmoles magnesium chloride, 8.8 μmoles Hepes buffer at pH=7.5, 15 μmoles dithiothreitol and enzyme protein between 0.4 and 1.3 mg. Incubation was provided for forty minutes at 30° C. Ion exchange chromatography employing Dowex 50 (H^+) resin is used to separate the product from the substrate. The inhibitors were dissolved in water and a mixture of water and up to 1 % ethanol or 2% dimethylsulfoxide, neither one of which inhibited the enzyme at these concentrations. Each inhibitor was tested at a minimum of three concentrations and the active compounds reassayed at least one additional time. ID50 's in μmoles were estimated from graphs summarizing results for each compound.

[2] = test system: L1210 leukemia; assay: L1210 leukemia in mice, increase in life span (Table 2); type: in vivo; details: Mus musculus, L1210, 192 h, read-out: ILS, average percent (± standard error) increase in life span; for ILS at 200 mg/kg: 200 mg/kg daily for 8 days; for ILS at 500 mg/kg: 500 mg/kg daily for 8 days
Description: As stated above, the compounds represented by formula I above have the ability to inhibit ribonucleotide reductase, an enzyme involved in the reductive conversion of ribonucleotides to deoxyribonucleotides. This enzymatic reaction is a rate controlling step in the biosynthetic pathway leading to DNA and cell replication. In general, the ribonucleotide reductase level is closely correlated with cellular replication.
as §1

[3] = test system: L-1210 Leukemia; type: in vivo, mice; details: once or twice daily for 9-10 days
Protocol: (§2) All compounds were administered once or twice daily for 9-10 days starting 24 hours after inoculation with the tumor.

[4] = test system: Lewis Lung; assay: Activity vs. Lewis Lung (Table 5); type: in vivo, mice; details: once or twice daily for 9-10 days
Protocol: as §2

[5] = test system: CA-755 adenocarcinoma; assay: Activity vs. CA-755 adenocarcinoma (Table 7); type: in vivo, mice; details: once or twice daily for 9-10 days
Protocol: as §2

[6] = test system: L-1210 Leukemia; type: in vivo, mice
Protocol: In a series of studies against L-1210 leukemia, in addition to those studies set forth in Table 2 and 4, 3,4-dihydroxybenzohydroxamic acid gave the following increases in survival times at the dose levels specified. Drug was administered daily for nine days.
Similar data for 3,4,5-trihydroxybenzohydroxamic acid are as follows: […]

[7] = test system: L-5563 lymphoma; assay: Activity vs. L-5563 lymphoma (Table 6); details: once or twice daily for 9-10 days
Protocol: as §2

[8] = test system: L-1210 Leukemia; type: in vivo, mice; remark: listed apart in the source
Description: The above data clearly show the enhanced anti-tumor activity of trihydroxybenzohydroxamic acid where the hydroxy groups are vicinal but no hydroxyl is ortho. Similar data are available for the vicinal dihydroxybenzohydroxamic acids with and without an ortho-hydroxy substituent in an L-1210 leukemic test in mice as follows: […]

[9] = test system: L-1210 Leukemia; assay: Direct side-by-side comparison with L-1210 leukemia; type: in vivo, mice
Description: In a direct side-by-side comparison with L-1210 leukemia, the following results were obtained.

[10] = test system: DNA synthesis in Ehrlich ascites tumor cells; details: cited from earlier work; for inhibition of / selectivity against DNA synthesis (in words) / selectivity against DNA synthesis (in words): Gale and Hynes 1968; for inhibition of / selectivity against DNA synthesis (in words): in vitro; for selectivity against DNA synthesis (in words): only after exposure of the cells for 1-2 hours
[11] = Biochemical Pharmacology 1971; cited from earlier work
[12] = test system: P388 Leukemia; assay: Activity vs. P388 Leukemia (Table 8); type: in vivo, mice; details: once or twice daily for 9-10 days
Protocol: as §2

NC(=O)c1ccc(O)c(O)c1O [2,3,4-trihydroxybenzamide]
IC50 [1]: 5 µM
Inhibitory Potency for ribonucleotide reductase [1]: 100
ILS at 200 mg/kg [2]: 48 ± 7%

O=C(NO)c1ccc(O)c(O)c1O [2,3,4-trihydroxybenzohydroxamic acid]
IC50 [1]: 3.5 µM
Inhibitory Potency for ribonucleotide reductase [1]: 140
ILS at 125 mg/kg ([2]; 125 mg/kg daily for 8 days): 30 ± 7%
% increase in survival time ([3]; 25-50 mg/kg): 17-21%
% tumor inhibition ([4]; 25-50 mg/kg): 13-14%
% inhibition ([5]; 25-50 mg/kg): 12-18%
% increase in survival ([6]; 25 mg/kg daily for nine days): 10%
% increase in survival ([6]; 50 mg/kg daily for nine days): 8%
% increase in survival ([6]; 100 mg/kg daily for nine days): 16%
toxic (in column % inhibition) ([7]; 25-50 mg/kg): toxic

O=C(NO)c1cccc(O)c1O [2,3-dihydroxybenzohydroxamic acid]
IC50 [1]: 8 µM
Inhibitory Potency for ribonucleotide reductase [1]: 63
ILS at 200 mg/kg [2]: 36 ± 11%
% increase in survival time ([8]; 300 mg/kg): about 0%
% increase in survival time ([8]; 450 mg/kg): about 0%
% increase in survival time ([9]; 125 mg/kg): 0%
% increase in survival time ([9]; 250 mg/kg): 16%
inhibition of / selectivity against DNA synthesis (in words) [10]: marked selectivity against DNA synthesis with a greater inhibition than that produced by salicylhydroxamic acid
antimitogenic activity (in words) [11]: most active compounds tested

O=C(NO)c1ccc(O)cc1O [2,4-dihydroxybenzohydroxamic acid]
IC50 [1]: 250 µM
Inhibitory Potency for ribonucleotide reductase [1]: 2.0
ILS at 500 mg/kg [2]: 42 ± 7%

O=C(NO)c1cc(O)ccc1O [2,5-dihydroxybenzohydroxamic acid]
IC50 [1]: 200 µM
Inhibitory Potency for ribonucleotide reductase [1]: 2.5
ILS at 300 mg/kg ([2]; 300 mg/kg daily for 8 days): 30 ± 14%

O=C(NO)c1c(O)cccc1O [2,6-dihydroxybenzohydroxamic acid]
IC50 [1]: 100 µM
Inhibitory Potency for ribonucleotide reductase [1]: 5.0
ILS at 88 mg/kg ([2]; 88 mg/kg daily for 8 days): 23 ± 11%

Nc1ccc(C(=O)NO)c(O)c1 [2-hydroxy-4-aminobenzoyl compound]
antimitogenic activity (in words) [11]: inactive

CNC(=O)c1cc(O)c(O)c(O)c1 [3,4,5 NHCH3]
IC50 [1]: 25 µM
ILS at 500 mg/kg [2]: 60 ± 29%

NC(=O)c1cc(O)c(O)c(O)c1 [3,4,5-trihydroxybenzamide]
IC50 [1]: 10 µM
Inhibitory Potency for ribonucleotide reductase [1]: 50
ILS at 250 mg/kg ([2]; 250 mg/kg daily for 8 days): 42 ± 5%
% increase in survival time ([3]; 150 mg/kg): 50%
% increase in survival time ([3]; 175 mg/kg): 55%
% increase in survival time ([3]; 225 mg/kg): 10%
% tumor inhibition ([4]; 200 mg/kg): 21%
% inhibition ([5]; 200 mg/kg): 38%
% Prolongation ([12]; 175 mg/kg): 43%
% Prolongation ([12]; 200 mg/kg): 40%
% Prolongation ([12]; 225 mg/kg): 55%
toxic (in column % inhibition) ([7]; 200 mg/kg): toxic

NC(=O)c1ccc(O)c(O)c1 [3,4-dihydroxybenzamide]
IC50 [1]: 50 µM
Inhibitory Potency for ribonucleotide reductase [1]: 10
ILS at 1200 mg/kg ([2]; 1200 mg/kg daily for 8 days): 35 ± 11%

O=C(Cc1ccc(O)c(O)c1)NO [3,4-dihydroxyphenylacetohydroxamic acid]
% increase in survival time ([3]; 606 mg/kg): 57%

Nc1cc(N)cc(C(=O)NO)c1 [3,5-Diaminobenzohydroxamic acid]
selectivity against DNA synthesis (in words) [10]: relative selectivity against DNA synthesis

O=C(NO)c1cc(O)cc(O)c1 [3,5-dihydroxybenzohydroxamic acid]
IC50 [1]: 400 µM
Inhibitory Potency for ribonucleotide reductase [1]: 1.2
ILS at 1000 mg/kg ([2]; 1000 mg/kg daily for 8 days): 52 ± 22%

CC(C)c1cc(C(=O)NO)c(O)c(C(C)C)c1 [3,5-diisopropylsalicylhydroxamic acid]
inhibition of DNA synthesis, rank in words ([10]; Gale, Hynes and Smith 1970): most active compound

Nc1ccc(C(=O)NO)cc1 [4-aminobenzohydroxamic acid]
selectivity against DNA synthesis (in words) [10]: relative selectivity against DNA synthesis
antimitogenic activity (in words) [11]: inactive

NC(=O)c1ccccc1 [benzamide]
inhibition of / selectivity against DNA synthesis (in words) [10]: totally inactive

NC(=O)NO [hydroxyurea, reference compound]
% increase in survival time ([3]; 30 mg/kg): 27%
% increase in survival time ([3]; 40 mg/kg): 27%
% increase in survival time ([3]; 60 mg/kg): 92%
% increase in survival time ([3]; 71 mg/kg): 58%
% tumor inhibition ([4]; 71 mg/kg): 27%
% tumor inhibition ([4]; 400 mg/kg): 44%
% inhibition ([5]; 71 mg/kg): 27%
% inhibition ([5]; 200 mg/kg): 26%

O=C(Oc1ccccc1)c1cc(O)c(O)c(O)c1 [phenyl 3,4,5-trihydroxybenzoate]
Inhibitory Potency for ribonucleotide reductase [1]: 33
% increase in survival time ([3]; 200 mg/kg): 56%
% tumor inhibition ([4]; 50 mg/kg): 2%
% tumor inhibition ([4]; 200 mg/kg): 14%
% inhibition ([5]; 100 mg/kg): 27%
% inhibition ([5]; 200 mg/kg): 11%
% inhibition ([7]; 200 mg/kg): 19%
